Test systems include HS 578T breast; LOX IMVI melanoma; NCI-H226 lung; MCF7 breast; OVCAR-5 ovarian; NCI-H460 lung; NCI-H23 lung; HCC-2998 colon; A549 NSCLC; T-47D breast.
Common to all, as to assay: NCI-60 cell line screen, 48 h

Molecules are shown by their SMILES. Where “and” joins values, the source holds several entries; their conditions need not be identical. Equal values may be shown once.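 Interpolation was linear, between the two tested concentrations surrounding the appropriate level; five concentrations were tested over 48 hours in 96-well plates. The concentration for 50% growth inhibition is given as GI50. TGI: concentration producing complete growth inhibition.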

As to `CSc1nnnc2ccccc12`, the TGI in the test on HS 578T breast, with LOX IMVI melanoma, in the test on NCI-H226 lung, in the test on MCF7 breast, in the test with OVCAR-5 ovarian and with NCI-H460 lung was above 100 µM throughout. For the same compound, the TGI in the test with NCI-H23 lung, in the test on HCC-2998 colon, with A549 NSCLC and in the test on T-47D breast was above 100 µM in each case.
As to `CCOC(=O)c1ccc2nc3n(c2c1)C(c1c(F)cccc1F)SC3` (stereo not given), the TGI in the test on HS 578T breast is above 100 µM; with LOX IMVI melanoma, above 100 µM; in the test with NCI-H226 lung it was 87 µM; with MCF7 breast, above 100 µM; in the test with OVCAR-5 ovarian it was above 100 µM; in the test with NCI-H460 lung, above 100 µM. In addition, the TGI with NCI-H23 lung, with HCC-2998 colon, in the test on A549 NSCLC and in the test with T-47D breast was above 100 µM throughout.
`Cc1ccc(/C=c2\c(=O)[nH]c3nc4ccccc4c(=O)n23)cc1`: the TGI with HS 578T breast was above 100 µM; with LOX IMVI melanoma, above 100 µM; in the test on MCF7 breast it was above 100 µM; in the test with OVCAR-5 ovarian it was above 100 µM; in the test on NCI-H23 lung, above 100 µM; in the test on HCC-2998 colon it was 62.6 µM. Further, the TGI in the test with A549 NSCLC and in the test with T-47D breast was above 100 µM throughout.
For the compound `C=CC(=O)N1C/C(=C\c2ccc(OC)cc2)C(=O)/C(=C/c2ccc(OC)cc2)C1`, the TGI in the test on HS 578T breast was above 28.7 µM; with LOX IMVI melanoma it was 3.37 µM; in the test on NCI-H226 lung, 4.6 µM; in the test on MCF7 breast it was 5.01 µM; with OVCAR-5 ovarian, 16.2 µM; in the test on NCI-H460 lung, 6.82 µM. Further, the TGI in the test with NCI-H23 lung is 4.79 µM; in the test with HCC-2998 colon, 2.87 µM; in the test on A549 NSCLC, 8.16 µM; with T-47D breast it was above 100 µM.
For the compound `CC1(C)CCCCCC(O)C(O)CCC(C)(C)C1=O` (stereo not given), the TGI in the test on HS 578T breast, in the test on LOX IMVI melanoma, in the test on NCI-H226 lung, in the test with MCF7 breast, with OVCAR-5 ovarian and in the test with NCI-H460 lung was above 100 µM throughout. The TGI with NCI-H23 lung, with A549 NSCLC and with T-47D breast was above 100 µM throughout.
As for `CCOC(=O)c1nc2ccccc2nc1Nc1ccc(C(=O)OC)s1`, the TGI with HS 578T breast, with LOX IMVI melanoma, with MCF7 breast, in the test with OVCAR-5 ovarian, with NCI-H460 lung and with NCI-H23 lung was above 100 µM throughout. Further, the TGI in the test on HCC-2998 colon, with A549 NSCLC and in the test with T-47D breast was above 100 µM in each case.
With `CC(=O)NC1C(OCc2ccccc2)OC(CO)C(O)C1OC(C)C(=O)NC(C(=O)NC(CCC(=O)NCCCNc1ccc([N+](=O)[O-])c2[nH]c3ccccc3c(=O)c12)C(N)=O)C(C)C` (stereo not given), the TGI with HS 578T breast, with LOX IMVI melanoma, with NCI-H226 lung, in the test on MCF7 breast, with OVCAR-5 ovarian and in the test on NCI-H460 lung was above 100 µM in each case. Besides, the TGI in the test on NCI-H23 lung, with A549 NSCLC and in the test with T-47D breast was above 100 µM in each case.
Regarding `COc1ccc(NC(=O)CSC(=O)c2ccccc2)c(SCCSSCCSc2cc(OC)ccc2NC(=O)CSC(=O)c2ccccc2)c1`, the TGI with HS 578T breast, in the test with LOX IMVI melanoma, in the test on NCI-H226 lung, with MCF7 breast, in the test with OVCAR-5 ovarian and with NCI-H460 lung was above 100 µM in each case. The TGI in the test on NCI-H23 lung, in the test with A549 NSCLC and in the test on T-47D breast was above 100 µM each time.
As for `N#Cc1ccc(-c2ccc(Cl)cc2)n(C2OC(CO)C(O)C(O)C2O)c1=S` (stereo not given), the TGI in the test with HS 578T breast, in the test with LOX IMVI melanoma, with NCI-H226 lung, in the test on MCF7 breast, with OVCAR-5 ovarian and in the test with NCI-H460 lung was above 100 µM in each case. Moreover, the TGI in the test on NCI-H23 lung, in the test on HCC-2998 colon, in the test with A549 NSCLC and in the test with T-47D breast was above 100 µM throughout. In addition, the GI50 in the test with NCI-H23 lung is > 100 µM and 31.8 µM.
On to `CC1(C)CCC2=C(O1)c1ccccc1C(=Nc1ccc([N+](=O)[O-])cc1)C2=O`, for which the TGI is above 100 µM in the test on HS 578T breast; above 100 µM in the test with LOX IMVI melanoma; 25.3 µM with NCI-H226 lung; 27.7 µM with MCF7 breast; 28.2 µM with OVCAR-5 ovarian; 29.1 µM with NCI-H460 lung. The TGI is 52.9 µM in the test with NCI-H23 lung, 32.2 µM with HCC-2998 colon, 30 µM in the test on A549 NSCLC and 31 µM in the test with T-47D breast. Also, the GI50 in the test on LOX IMVI melanoma is 7.59 µM; in the test with OVCAR-5 ovarian it was 14.5 µM; with NCI-H23 lung it was 18.3 µM.
For `O=S(=O)(O)c1ccc(O)c(N=Nc2c(O)ccc3ccccc23)c1`, the TGI with HS 578T breast, in the test with LOX IMVI melanoma, in the test on NCI-H226 lung, in the test with OVCAR-5 ovarian, in the test on NCI-H23 lung and with A549 NSCLC was above 100 µM throughout. The compound further registered a TGI in the test with T-47D breast above 100 µM.
In the case of `CCCCCCCCCCCC(=O)N(CCCCCCCCC)CC(O)C(O)C(OC1OC(CO)C(O)C(O)C1O)C(O)CO` (stereo not given), the TGI with HS 578T breast is above 100 µM; with LOX IMVI melanoma it was 40.2 µM; in the test with NCI-H226 lung it was 37.8 µM; in the test with MCF7 breast, above 100 µM; with OVCAR-5 ovarian it was 49.3 µM; in the test with NCI-H460 lung, 35.6 µM. Further, the TGI amounted to 35.3 µM with NCI-H23 lung, 32 µM in the test on HCC-2998 colon, 43.5 µM in the test with A549 NSCLC and 44.3 µM with T-47D breast.
Take `N=C(N)SCc1nc(-c2ccc(Cl)cc2)no1`: the TGI was above 100 µM with HS 578T breast; 31.2 µM with LOX IMVI melanoma; above 100 µM with NCI-H226 lung; 30.1 µM in the test with MCF7 breast; 27.8 µM in the test on OVCAR-5 ovarian; above 100 µM with NCI-H460 lung. Also, the TGI with NCI-H23 lung is above 100 µM; in the test on A549 NSCLC it was above 100 µM; in the test on T-47D breast, 29.9 µM.
Take `CCN(CC)/N=C\c1c2ccccc2cc2ccccc12`: the TGI in the test with HS 578T breast, with OVCAR-5 ovarian, with NCI-H460 lung, in the test on NCI-H23 lung, in the test with A549 NSCLC and in the test on T-47D breast was above 100 µM in each case.
